Assay results taken from patent US20200108074A1, “COMBINATIONS OF CHK1- AND WEE1- INHIBITORS” (Seattle Genetics, Inc., priority 2017, published 2020).
Entries after “also recorded” stand apart in the source; their conditions may differ.

What was measured:
[1] = target: T1, Chk1 (Homo sapiens, UniProt O14757); test: Chk1 enzymatic assay; type: biochemical; details: 10 μM [γ-33P]-ATP, 20 μM peptide substrate (SEQ ID NO:1); read-out: IC50, enzymatic potency against Chk1
T1 sequence (O14757 1-476): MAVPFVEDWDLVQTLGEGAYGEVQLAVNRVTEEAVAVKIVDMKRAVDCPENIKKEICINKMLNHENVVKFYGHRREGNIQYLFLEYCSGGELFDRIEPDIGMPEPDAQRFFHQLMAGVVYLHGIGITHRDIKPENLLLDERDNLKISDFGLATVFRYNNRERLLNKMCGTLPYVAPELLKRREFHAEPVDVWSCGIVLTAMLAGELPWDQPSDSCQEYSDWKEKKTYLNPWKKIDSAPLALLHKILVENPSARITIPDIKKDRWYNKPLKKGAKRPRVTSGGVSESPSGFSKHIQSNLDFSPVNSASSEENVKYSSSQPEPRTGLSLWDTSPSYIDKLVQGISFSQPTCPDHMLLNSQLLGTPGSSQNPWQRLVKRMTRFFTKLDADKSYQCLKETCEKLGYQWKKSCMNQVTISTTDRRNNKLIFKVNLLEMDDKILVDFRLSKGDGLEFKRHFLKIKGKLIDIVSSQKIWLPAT

[2] = target: T1, Chk1; test: Cellular Chk1 assay, serine 296 phospho-epitope immunoblot in HT-29 cells; type: cell-based; details: HT-29 colon carcinoma cells, 18-hour assay, anti-Chk1 serine 296 phospho-epitope antibody
Method: Cellular Chk1 was assayed using HT-29 colon carcinoma cells in an 18-hour assay by immunoblotting with a rabbit anti-Chk1 serine 296 phosphor-epitope antibody (obtained from Cell Signaling Technology Inc.).

[3] = target: Chk2 (Homo sapiens, UniProt O96017); test: Kinase panel selectivity, IC50 relative to Chk1; type: biochemical
Method: Compound 1 was screened against a panel of 120 kinases, including those represented in FIG. 3A, using a 1 μM ATP concentration. The IC50 values, measured at the ATP Km for each kinase, are represented relative to Chk1 in FIG. 3B. Cellular IC50 values were derived from signal transduction assays in relevant cell lines using phosphor-epitope-specific antibodies.

[4] = test system: solid and hematological tumor-derived cell lines; test: Large cell line panel proliferation screens (CellTiter-Glo); type: cell-based; details: in vitro; lower end printed in nM, upper end in μM; read-out: IC50 values, single agent, large cell line panels
Method: A panel of 232 carcinoma derived cell lines was screened in a high-throughput proliferation assay using dilutions of Compound 1 or cisplatin. Cell lines were treated with serial half-log dilutions of Compound 1 or cisplatin using a starting concentration of 30 μM to achieve 9 dose levels and assayed 72 hours later for proliferation using a CellTiter-Glo® Assay (Promega). IC50 (EC50) values were calculated by fitting the dose-response data using a nonlinear regression model.
A panel of about 70 hematopoietic cell lines was screened for sensitivity to Compound 1 in a 72-hour proliferation assay (CrownBio Omnipanel). Cell lines that were screened included those representing anaplastic large cell lymphoma (ALCL), acute myeloid leukemia (AML), B-cell acute lymphoblastic leukemia (B-ALL), Burkitt lymphoma, chronic lymphocytic leukemia (CLL), chronic myelogenous leukemia (CML), mantle cell lymphoma (MCL), multiple myeloma (MM), acute promyelocytic leukemia (PML), and T-cell acute lymphoblastic leukemia (T-ALL).

[5] = test system: SK-MES-1 tumor cells; test: SK-MES-1 NSCLC tumor xenograft model; type: in vivo; details: treated mice
Method: (§1) In order to assess the in vivo efficacy of Compound 1, two different NSCLC xenograft models were used. SK-MES-1 or NCI-H727 tumor cells were inoculated subcutaneously in the flanks of athymic nude mice. Once tumors reached a volume of about 200 mm^3, mice were randomized into study groups (n=10 per group). Mice were treated by oral gavage with Compound 1 at a dose of 12.5, 25, or 50 mg/kg once per day. A negative control group was also included, wherein the animals were administered vehicle only.

[6] = test system: NCI-H727 tumor cells; test: NCI-H727 NSCLC tumor xenograft model, single agent; type: in vivo; details: treated mice
Method: as §1

[7] = test system: Jeko-1 cells; test: Jeko-1 MCL xenograft model, single agent; details: mouse, in vivo
Method: (§2) The effects of Compound 1 were assessed in two different mantle cell lymphoma (MCL) xenograft models. Jeko-1 and or Maver-1 cells were inoculated subcutaneously in the flanks of CB17.SCID (for Jeko-1 cells) or athymic nude (for Maver-1 cells) mice. Once the tumors reached a volume of about 200 mm^3, the mice were randomized into study groups (n=10 per group). Mice were treated with Compound 1 by oral gavage, or with only vehicle as a negative control. In one treatment group, Compound 1 was administered once per day for 21 days. In the other treatment group, Compound 1 was administered twice per day for three cycles, wherein each cycle constituted treatment for three consecutive days, followed by no treatment for four consecutive days.

[8] = test system: Maver-1 cells; test: Maver-1 MCL xenograft model, single agent; details: mouse, in vivo
Method: as §2

[9] = test system: Jeko-1 cells; test: Jeko-1 MCL tumor xenograft model, combination with Wee1 inhibitor; type: in vivo; details: Compound 1 7.5 mg/kg, AZD-1775 15 mg/kg, or both
Method: A Jeko-1 mantle cell lymphoma (MCL) tumor xenograft model was used to study the combined effects of Chk1 inhibition with Compound 1 and a Wee1 inhibitor. Jeko-1 cells were inoculated subcutaneously into the flanks of CB17.SCID mice. Once tumors reached a volume of about 200 mm^3, mice were randomized into study groups (n=10 per group). […] A negative control group was included wherein the mice were treated with vehicle only.

[10] = test system: MV-411 cells; test: MV-411 AML tumor xenograft model; type: in vivo; details: single agent
Excerpt: An MV-411 tumor xenograft model was used to test the ability of Compound 1 to inhibit AML tumor growth in vivo. MV-411 cells were mixed with Matrigel in a 1:1 ratio and injected subcutaneously into the right flanks of female NOD.SCID mice. Once tumors reached a volume of about 100 to 200 mm^3, mice were randomized into study groups (n=10 per group) and dosed with Compound 1 by oral gavage.

[11] = GLP cardiovascular safety study; type: in vivo; details: QTc interval, left ventricular pressure, contractility end points
Excerpt: 7-day repeat dose tolerability studies have been completed in mice, rats, and cynomolgus monkeys, and there have been no findings in a cynomolgus monkey GLP cardiovascular safety study (including corrected QT (QTc) interval, left ventricular pressure (LVP), and contractility end points). Compound 1 is active as a single agent, but is also active in combination with chemotherapeutic agents and Wee1 inhibitors.

[12] = Efflux ratio; type: in vitro ADME
[13] = Metabolic stability; type: in vitro ADME
[14] = test system: CYP; test: CYP inhibition; type: in vitro ADME
[15] = target: hERG (Homo sapiens, UniProt Q12809); test: hERG inhibition
hERG, sequence (Q12809 whole entry): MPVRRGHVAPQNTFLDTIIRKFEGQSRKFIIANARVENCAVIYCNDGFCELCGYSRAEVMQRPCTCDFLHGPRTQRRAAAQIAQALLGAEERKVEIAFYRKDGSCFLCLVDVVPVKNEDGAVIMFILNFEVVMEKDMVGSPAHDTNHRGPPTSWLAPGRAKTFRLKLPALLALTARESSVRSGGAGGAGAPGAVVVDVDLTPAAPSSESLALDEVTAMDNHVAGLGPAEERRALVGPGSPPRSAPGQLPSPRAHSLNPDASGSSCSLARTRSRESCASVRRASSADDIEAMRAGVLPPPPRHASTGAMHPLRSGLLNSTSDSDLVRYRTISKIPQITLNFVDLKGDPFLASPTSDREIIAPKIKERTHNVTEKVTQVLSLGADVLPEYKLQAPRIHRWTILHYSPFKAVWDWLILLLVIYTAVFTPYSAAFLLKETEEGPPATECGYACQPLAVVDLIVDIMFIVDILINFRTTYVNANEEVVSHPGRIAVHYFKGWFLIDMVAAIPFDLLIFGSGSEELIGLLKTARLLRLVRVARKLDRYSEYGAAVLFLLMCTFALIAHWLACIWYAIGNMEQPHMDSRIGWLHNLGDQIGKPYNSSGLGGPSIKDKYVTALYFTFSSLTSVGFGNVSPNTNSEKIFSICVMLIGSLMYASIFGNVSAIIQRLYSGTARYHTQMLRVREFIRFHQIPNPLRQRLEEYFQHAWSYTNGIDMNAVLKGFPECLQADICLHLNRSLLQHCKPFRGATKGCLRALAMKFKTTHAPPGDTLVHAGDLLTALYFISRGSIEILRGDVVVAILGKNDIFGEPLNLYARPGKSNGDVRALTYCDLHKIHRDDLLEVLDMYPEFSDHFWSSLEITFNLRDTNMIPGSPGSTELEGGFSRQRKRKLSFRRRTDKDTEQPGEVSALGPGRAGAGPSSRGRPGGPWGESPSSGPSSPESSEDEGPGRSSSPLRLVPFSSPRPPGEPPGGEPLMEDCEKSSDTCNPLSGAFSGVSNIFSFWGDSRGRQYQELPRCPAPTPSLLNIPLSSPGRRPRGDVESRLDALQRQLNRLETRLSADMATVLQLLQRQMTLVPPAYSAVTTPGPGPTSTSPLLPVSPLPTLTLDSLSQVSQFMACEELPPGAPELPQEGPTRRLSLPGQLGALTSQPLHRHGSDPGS

Chk2, sequence (O96017 whole entry, species assumed): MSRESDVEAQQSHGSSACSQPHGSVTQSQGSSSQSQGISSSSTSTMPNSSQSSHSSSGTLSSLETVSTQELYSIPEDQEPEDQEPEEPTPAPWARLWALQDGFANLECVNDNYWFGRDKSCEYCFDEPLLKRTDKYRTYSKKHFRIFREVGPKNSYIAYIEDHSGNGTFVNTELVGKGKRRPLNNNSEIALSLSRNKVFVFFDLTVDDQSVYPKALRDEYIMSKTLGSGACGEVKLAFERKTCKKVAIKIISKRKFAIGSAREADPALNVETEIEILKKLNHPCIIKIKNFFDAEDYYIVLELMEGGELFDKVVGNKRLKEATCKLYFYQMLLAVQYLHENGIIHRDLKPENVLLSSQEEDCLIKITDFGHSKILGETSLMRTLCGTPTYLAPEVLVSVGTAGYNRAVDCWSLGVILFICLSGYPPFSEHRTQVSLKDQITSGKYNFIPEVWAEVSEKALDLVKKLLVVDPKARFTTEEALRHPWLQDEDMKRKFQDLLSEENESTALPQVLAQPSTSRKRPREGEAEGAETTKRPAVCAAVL

| SMILES | IC50 [1] | IC50 [2] | selectivity for Chk1 over Chk2 [3] | IC50 [4] | effect on body weight [5] | effect on body weight [6] | tolerability (body weight) [7] | tolerability (body weight) [8] | tolerability (body weight) [9] | tolerability (body weight) [10] | cardiovascular safety findings [11] | efflux ratio [12] | metabolic stability [13] | CYP inhibition [14] | hERG inhibition index [15] | tumor growth ([9]; oral gavage once per day, three cycles of 3 days on/4 days off) |
| --- | --- | --- | --- | --- | --- | --- | --- | --- | --- | --- | --- | --- | --- | --- | --- | --- |
| COc1cc(C2(F)CCN(C)CC2)ccc1-c1cc(Nc2cnc(C#N)cn2)n[nH]1 [Compound 1, 5-((5-(4-(4-fluoro-1-methylpiperidin-4-yl)-2-methoxyphenyl)-1H-pyrazol-3-yl)amino)pyrazine-2-carbonitrile] | 0.124 nM | 0.511 nM | more than 1,000 × | ≥ 30 nM | minimal effects on body weight | minimal effects on body weight | well-tolerated | well-tolerated | well-tolerated | well-tolerated | low risk of cardiotoxicity; also recorded: no findings | low | good | no CYP inhibition liabilities | excellent |  |
| C=CCn1c(=O)c2cnc(Nc3ccc(N4CCN(C)CC4)cc3)nc2n1-c1cccc(C(C)(C)O)n1 [AZD-1775, 2-allyl-1-(6-(2-hydroxypropan-2-yl)pyridin-2-yl)-6-((4-(4-methylpiperazin-1-yl)phenyl)amino)-1H-pyrazolo[3,4-d]pyrimidin-3(2H)-one, reference compound] |  |  |  |  |  |  |  |  |  |  |  |  |  |  |  | inhibited by both agents alone |
